Consider 11 molecules from ChEMBL document CHEMBL2346501, “Synthesis and evaluation of coumarin derivatives as potential dual-action HIV-1 protease and reverse transcriptase inhibitors” (Bioorg Med Chem, 2013).

Structures are written as SMILES.

The target in test [1] is Human immunodeficiency virus type 1 reverse transcriptase (Human immunodeficiency virus 1) (UniProt Q72547). In words: Inhibition of HIV1 reverse transcriptase at 50 uM relative to control.
In test [2] the target is Human immunodeficiency virus type 1 reverse transcriptase (Human immunodeficiency virus 1, UniProt Q72547). Briefly: Inhibition of HIV1 reverse transcriptase.
For test [3], the target named is Protease (Human immunodeficiency virus 1, UniProt Q9YQ12). In words: Inhibition of HIV1 protease.
Test [4] concerns the target Protease (Human immunodeficiency virus 1) (UniProt Q9YQ12). In words: Inhibition of HIV1 protease at 50 uM relative to control.

Chain of Protease (Q9YQ12 whole entry): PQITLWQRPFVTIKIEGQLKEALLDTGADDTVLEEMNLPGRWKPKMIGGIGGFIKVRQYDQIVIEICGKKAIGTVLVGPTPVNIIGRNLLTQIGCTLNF
Chain of Protease (Human immunodeficiency virus 1) (Q9YQ12 as listed by the source): as the sequence (Q9YQ12 whole entry) above

With `Cc1cn([C@H]2C[C@H](n3cc(CNCc4cc5cc(Br)ccc5oc4=O)nn3)[C@@H](CO)O2)c(=O)[nH]c1=O`, the inhibition was found to be 94% in test [1] and 57% in test [4]. Moreover, the 50% inhibitory concentration (IC50) in test [2] was found to be 6.1 µM; in test [3], 28.9 µM.

For the molecule `Cc1cn([C@H]2C[C@H](n3cc(CNCC(=O)N(Cc4ccccc4)Cc4cc5cc(Cl)ccc5oc4=O)nn3)[C@@H](CO)O2)c(=O)[nH]c1=O`, the inhibition in test [1] was 99%; in test [4] it was 58%. Further, the values for the IC50 in test [2] and in test [3] were 3.69 µM and 29.5 µM, respectively.

For the molecule `CCOc1cccc2cc(CNCc3cn([C@H]4C[C@H](n5cc(C)c(=O)[nH]c5=O)O[C@@H]4CO)nn3)c(=O)oc12`, the inhibition came to 21% in test [1] and 62% in test [4]. Moreover, the IC50 came to 114 µM in test [2] and 23.3 µM in test [3].

With `Cc1cn([C@H]2C[C@H](n3cc(CNCC(=O)N(Cc4ccccc4)Cc4cc5cc(Br)ccc5oc4=O)nn3)[C@@H](CO)O2)c(=O)[nH]c1=O`, the inhibition was found to be 94% in test [1] and 52% in test [4]. Further, the IC50 in test [2] came out at 4.24 µM; in test [3], 32 µM.

On to `Cc1cn([C@H]2C[C@H](n3cc(CNCc4cc5cc(Cl)ccc5oc4=O)nn3)[C@@H](CO)O2)c(=O)[nH]c1=O`, for which the inhibition was 24% in test [1] and 56% in test [4]. For the same molecule, the IC50 stood at 102 µM in test [2] and 24.8 µM in test [3].

For `CCOc1cccc2cc(CN(Cc3ccccc3)C(=O)CNCc3cn([C@H]4C[C@H](n5cc(C)c(=O)[nH]c5=O)O[C@@H]4CO)nn3)c(=O)oc12`, the results for the inhibition in test [1] and in test [4] were 97% and 58%, respectively. Moreover, the IC50 in test [2] worked out at 2.86 µM; in test [3] it was 27.3 µM.

In the case of `COc1cccc2cc(CN(Cc3ccccc3)C(=O)CNCc3cn([C@H]4C[C@H](n5cc(C)c(=O)[nH]c5=O)O[C@@H]4CO)nn3)c(=O)oc12`, the inhibition in test [1] came to 97%; in test [4], 60%. Also, the half-maximal inhibitory concentration (IC50) was 2.88 µM in test [2] and 22.7 µM in test [3].

For the molecule `Cc1cn([C@H]2C[C@H](n3cc(CNCc4cc5ccccc5oc4=O)nn3)[C@@H](CO)O2)c(=O)[nH]c1=O`, the inhibition in test [1] is 92%; in test [4], 61%. Further, the IC50 amounted to 5.59 µM in test [2] and 27.1 µM in test [3].

Turning to `CC(C)c1nc(CN(C)C(=O)N[C@H](C(=O)N[C@@H](Cc2ccccc2)C[C@H](O)[C@H](Cc2ccccc2)NC(=O)OCc2cncs2)C(C)C)cs1`, the inhibition in test [4] stood at 72%.

On to `Cc1cn([C@H]2C[C@H](n3cc(CNCC(=O)N(Cc4ccccc4)Cc4cc5ccccc5oc4=O)nn3)[C@@H](CO)O2)c(=O)[nH]c1=O`, for which the inhibition in test [1] was 96%; in test [4], 52%. For the same molecule, the values for the IC50 in test [2] and in test [3] were 3.4 µM and 35.1 µM, respectively.

For `COc1cccc2cc(CNCc3cn([C@H]4C[C@H](n5cc(C)c(=O)[nH]c5=O)O[C@@H]4CO)nn3)c(=O)oc12`, the values for the inhibition in test [1] and in test [4] were 29% and 64%, respectively. The IC50 in test [2] came to 106 µM; in test [3] it was 21.6 µM.
